Reference: patent US4994270A, “A54145 antibiotics and process for their production” (Eli Lilly and Company, priority 1988, dated 1991)
Converted amounts (≈) assume the structure as drawn. Starred links: 1 amine or outer side, 2 acyl side, 3 side chain; linkers in the order of their positions; H or OH if unused. Positions of bridges follow the written chain, without caps; N, C: chain ends. Non-standard residues stand in square brackets, D forms with d. Residues, ends and D or L forms follow the SMILES beside them. ξ: configuration not given here. *: point of attachment. Ileψ(thiazoline)Cys = CC[C@H](C)[C@H](N)C1=N[C@H](C(=O)*)CS1; ξAsp(3ξ-OMe) = COC(C(=O)O)C(N)C(=O)O; X1 = CC(CC(=O)O)C(N[*:1])C(=O)[*:2]; ξAsn(3ξ-OH) = NC(=O)C(O)C(N)C(=O)O; Decanoyl = CCCCCCCCCC(=O)*; dOrn = NCCC[C@@H](N)C(=O)O; X3 = CCC(C)CCCCCCC(=O)*; X2 = CC(C)CCCCCCC(=O)*; Sar = CNCC(=O)O

Assays:
[1] = tested on: Staphylococcus aureus V41; assay: MIC, conventional agar-dilution assay; format: cell-based
Method: (§1) The A54145 antibiotics inhibit the growth of pathogenic bacteria. […] The MIC's in Table IX were determined by conventional agar-dilution assays.

[2] = tested on: Streptococcus sp. group D X66; assay: MIC, conventional agar-dilution assay; format: cell-based
Method: as §1

[3] = tested on: Staphylococcus aureus S13E; assay: MIC, conventional agar-dilution assay; format: cell-based
Method: as §1

[4] = tested on: Staphylococcus epidermidis EPI1; assay: MIC, conventional agar-dilution assay; format: cell-based
Method: as §1

[5] = tested on: Staphylococcus aureus X1.1; assay: MIC, conventional agar-dilution assay; format: cell-based
Method: as §1

[6] = tested on: Streptococcus pyogenes C203; assay: MIC, conventional agar-dilution assay; format: cell-based
Method: as §1

[7] = tested on: Staphylococcus aureus X400; assay: MIC, conventional agar-dilution assay; format: cell-based
Method: as §1

[8] = tested on: Staphylococcus epidermidis 222; assay: MIC, conventional agar-dilution assay; format: cell-based
Method: as §1

[9] = tested on: Streptococcus pneumoniae Park1; assay: MIC, conventional agar-dilution assay; format: cell-based
Method: as §1

[10] = tested on: Streptococcus sp. group 2041; assay: MIC, conventional agar-dilution assay; format: cell-based
Method: as §1

Streptococcus pyogenes = assay: ED50 in experimentally infected mice; format: in vivo; conditions: mice infected with Streptococcus pyogenes; subcutaneous; doses given 1 and 4 hours postinfection
Method: The A54145 antibiotics have shown in vivo antimicrobial activity against experimentally-induced infections in laboratory animals. When two doses of test compound were administered to mice experimentally infected with Streptococcus pyogenes or Staphylococcus aureus, the activity observed was measured as an ED50 value [effective dose in mg/kg to protect 50% of the test animals: see Warren Wick, et al. J. Bacteriol. 81 233-235 (1961)].

[11] = Chick growth performance test (weight gain, feed efficiency); format: in vivo, chicks; conditions: Table XIII; for Weight Gain Amt.: chicks 7-14 days of age; for Feed/Gain % Impr. / Weight Gain % Impr.: relative to the control mean
Source text: In the tests, the compounds were given to chicks at the concentrations indicated in the feed. The test period was the 7-day period from 7-14 days of age of the birds. Growth performance (weight gain, feed consumption and feed efficiency) was compared to that of contemporary controls.

[12] = tested on: Streptomyces fradiae A54145.1, A54145.2 and A54145.3; assay: Resistance to antibiotics, sensitivity discs on seeded ISP No. 2 agar plates; conditions: identical for A54145.1, A54145.2, A54145.3; lincomycin 2 μg, penicillin G 10 units, bacitracin 10 units, cephalothin 30 μg, gentamicin 10 μg, neomycin 30 μg, oleandomycin 15 μg, rifampin 5 μg, streptomycin 10 μg, tetracycline 30 μg, tobramycin 10 μg, vancomycin 30 μg
Method: Resistance to antibiotics was measured by padding antibiotic sensitivity discs onto the surface of seeded ISP No. 2 agar plates.

SMILES | MIC [1] | MIC [2] | MIC [3] | MIC [4] | MIC [5] | MIC [6] | MIC [7] | MIC [8] | MIC [9] | MIC [10] | resistance or sensitivity of the strains to antibiotic discs [12] | other results
CCCCCCCCCC(=O)NC(Cc1c[nH]c2ccccc12)C(=O)NC(CCC(=O)O)C(=O)NC(C(=O)NC1C(=O)N(C)CC(=O)NC(C)C(=O)NC(CC(=O)O)C(=O)NC(CCCCN)C(=O)NC(C(OC)C(=O)O)C(=O)NCC(=O)NC(CC(N)=O)C(=O)NC(CCC(=O)O)C(=O)NC(C(C)CC)C(=O)OC1C)C(O)C(N)=O (stereo not shown) [Component A54145A1] (Decanoyl-WE[ξAsn(3ξ-OH)]T[Sar]ADK[ξAsp(3ξ-OMe)]GNEI; ester 4-C; configuration not given here) | 4 µg/mL (≈ 2.43 µM) | 16 µg/mL (≈ 9.73 µM) | 8 µg/mL (≈ 4.86 µM) | 4 µg/mL (≈ 2.43 µM) | 4 µg/mL (≈ 2.43 µM) | 1 µg/mL (≈ 0.608 µM) | 8 µg/mL (≈ 4.86 µM) | 4 µg/mL (≈ 2.43 µM) | 4 µg/mL (≈ 2.43 µM) | 32 µg/mL (≈ 19.5 µM) | – | ED50 Value (Streptococcus pyogenes): 5.0 mg/kg × 2
CCC(C)C1NC(=O)C(C(C)CC(=O)O)NC(=O)C(CC(N)=O)NC(=O)CNC(=O)C(C(OC)C(=O)O)NC(=O)C(CCCCN)NC(=O)C(CC(=O)O)NC(=O)C(C)NC(=O)CN(C)C(=O)C(NC(=O)C(NC(=O)C(CCC(=O)O)NC(=O)C(Cc2c[nH]c3ccccc23)NC(=O)CCCCCCC(C)C)C(O)C(N)=O)C(C)OC1=O (stereo not shown) [Component A54145B1] (X2-WE[ξAsn(3ξ-OH)]T[Sar]ADK[ξAsp(3ξ-OMe)]GN[X1]I; ester 4-C; configuration not given here) | 2 µg/mL (≈ 1.21 µM) | 8 µg/mL (≈ 4.82 µM) | 2 µg/mL (≈ 1.21 µM) | 1 µg/mL (≈ 0.603 µM) | 2 µg/mL (≈ 1.21 µM) | 0.5 µg/mL (≈ 0.301 µM) | 2 µg/mL (≈ 1.21 µM) | 1 µg/mL (≈ 0.603 µM) | 2 µg/mL (≈ 1.21 µM) | 32 µg/mL (≈ 19.3 µM) | – | Feed/Gain Ratio ([11]; 5 g/ton): 1.906; Weight Gain Amt. ([11]; 5 g/ton in feed): 326 g; Feed/Gain % Impr. ([11]; 5 g/ton): 5.3%; Weight Gain % Impr. ([11]; 5 g/ton): 3.5%; Feed/Gain Ratio ([11]; 10 g/ton): 1.860; Weight Gain Amt. ([11]; 10 g/ton in feed): 358 g; Feed/Gain % Impr. ([11]; 10 g/ton): 7.4%; Weight Gain % Impr. ([11]; 10 g/ton): 13.7%; Feed/Gain Ratio ([11]; 20 g/ton): 1.686; Weight Gain Amt. ([11]; 20 g/ton in feed): 448 g; Feed/Gain % Impr. ([11]; 20 g/ton): 16.2%; Weight Gain % Impr. ([11]; 20 g/ton): 42.2%
CCC(C)CCCCCCC(=O)NC(Cc1c[nH]c2ccccc12)C(=O)NC(CCC(=O)O)C(=O)NC(C(=O)NC1C(=O)N(C)CC(=O)NC(C)C(=O)NC(CC(=O)O)C(=O)NC(CCCCN)C(=O)NC(C(OC)C(=O)O)C(=O)NCC(=O)NC(CC(N)=O)C(=O)NC(C(C)CC(=O)O)C(=O)NC(C(C)C)C(=O)OC1C)C(O)C(N)=O (stereo not shown) [Component A54145C] (X3-WE[ξAsn(3ξ-OH)]T[Sar]ADK[ξAsp(3ξ-OMe)]GN[X1]V; ester 4-C; configuration not given here) | 2 µg/mL (≈ 1.21 µM) | 4 µg/mL (≈ 2.41 µM) | 2 µg/mL (≈ 1.21 µM) | 2 µg/mL (≈ 1.21 µM) | 2 µg/mL (≈ 1.21 µM) | 0.5 µg/mL (≈ 0.301 µM) | 2 µg/mL (≈ 1.21 µM) | 1 µg/mL (≈ 0.603 µM) | 2 µg/mL (≈ 1.21 µM) | 4 µg/mL (≈ 2.41 µM) | – | –
CCC(C)CCCCCCC(=O)NC(Cc1c[nH]c2ccccc12)C(=O)NC(CCC(=O)O)C(=O)NC(C(=O)NC1C(=O)N(C)CC(=O)NC(C)C(=O)NC(CC(=O)O)C(=O)NC(CCCCN)C(=O)NC(C(OC)C(=O)O)C(=O)NCC(=O)NC(CC(N)=O)C(=O)NC(CCC(=O)O)C(=O)NC(C(C)CC)C(=O)OC1C)C(O)C(N)=O (stereo not shown) [Component A54145D] (X3-WE[ξAsn(3ξ-OH)]T[Sar]ADK[ξAsp(3ξ-OMe)]GNEI; ester 4-C; configuration not given here) | 4 µg/mL (≈ 2.41 µM) | 4 µg/mL (≈ 2.41 µM) | 4 µg/mL (≈ 2.41 µM) | 2 µg/mL (≈ 1.21 µM) | 4 µg/mL (≈ 2.41 µM) | 0.5 µg/mL (≈ 0.301 µM) | 4 µg/mL (≈ 2.41 µM) | 2 µg/mL (≈ 1.21 µM) | 4 µg/mL (≈ 2.41 µM) | 32 µg/mL (≈ 19.3 µM) | – | –
CCC(C)CCCCCCC(=O)NC(Cc1c[nH]c2ccccc12)C(=O)NC(CCC(=O)O)C(=O)NC(C(=O)NC1C(=O)N(C)CC(=O)NC(C)C(=O)NC(CC(=O)O)C(=O)NC(CCCCN)C(=O)NC(C(OC)C(=O)O)C(=O)NCC(=O)NC(CC(N)=O)C(=O)NC(C(C)CC(=O)O)C(=O)NC(C(C)CC)C(=O)OC1C)C(O)C(N)=O (stereo not shown) [Component A54145E] (X3-WE[ξAsn(3ξ-OH)]T[Sar]ADK[ξAsp(3ξ-OMe)]GN[X1]I; ester 4-C; configuration not given here) | 2 µg/mL (≈ 1.2 µM) | 2 µg/mL (≈ 1.2 µM) | 2 µg/mL (≈ 1.2 µM) | 1 µg/mL (≈ 0.598 µM) | 1 µg/mL (≈ 0.598 µM) | 0.25 µg/mL (≈ 0.149 µM) | 2 µg/mL (≈ 1.2 µM) | 1 µg/mL (≈ 0.598 µM) | 1 µg/mL (≈ 0.598 µM) | 4 µg/mL (≈ 2.39 µM) | – | –
COC(C(=O)O)C1NC(=O)C(CCCCN)NC(=O)C(CC(=O)O)NC(=O)C(C)NC(=O)CN(C)C(=O)C(NC(=O)C(NC(=O)C(CCC(=O)O)NC(=O)C(Cc2c[nH]c3ccccc23)NC(=O)CCCCCCC(C)C)C(O)C(N)=O)C(C)OC(=O)C(C(C)C)NC(=O)C(CCC(=O)O)NC(=O)C(CC(N)=O)NC(=O)CNC1=O (stereo not shown) [Component A54145F] (X2-WE[ξAsn(3ξ-OH)]T[Sar]ADK[ξAsp(3ξ-OMe)]GNEV; ester 4-C; configuration not given here) | 16 µg/mL (≈ 9.81 µM) | 16 µg/mL (≈ 9.81 µM) | 16 µg/mL (≈ 9.81 µM) | 16 µg/mL (≈ 9.81 µM) | 16 µg/mL (≈ 9.81 µM) | 4 µg/mL (≈ 2.45 µM) | 16 µg/mL (≈ 9.81 µM) | 8 µg/mL (≈ 4.91 µM) | 8 µg/mL (≈ 4.91 µM) | > 32 µg/mL | – | –
CC[C@H](C)[C@H](N)C1=N[C@H](C(=O)N[C@@H](CC(C)C)C(=O)N[C@H](CCC(=O)O)C(=O)N[C@H](C(=O)N[C@H]2CCCCNC(=O)[C@H](CC(N)=O)NC(=O)[C@@H](CC(=O)O)NC(=O)[C@H](Cc3cnc[nH]3)NC(=O)[C@@H](Cc3ccccc3)NC(=O)[C@H]([C@@H](C)CC)NC(=O)[C@@H](CCCN)NC2=O)[C@@H](C)CC)CS1 [bacitracin] ({Ileψ(thiazoline)Cys}-L[dE]IK[dOrn]I[dF]H[dD]N; lactam 4-C) | – | – | – | – | – | – | – | – | – | – | sensitive | –
CC(=O)OCC1=C(C(=O)O)N2C(=O)[C@@H](NC(=O)Cc3cccs3)[C@H]2SC1 [cephalothin] | – | – | – | – | – | – | – | – | – | – | sensitive | –
CCC[C@@H]1C[C@@H](C(=O)N[C@@H]([C@H]2O[C@H](SC)[C@H](O)[C@@H](O)[C@H]2O)[C@@H](C)O)N(C)C1 [lincomycin] | – | – | – | – | – | – | – | – | – | – | resistant | –
